Measurements published in PMC5004205, “Spiro[pyrrolidine-3, 3´-oxindole] as potent anti-breast cancer compounds: Their design, synthesis, biological evaluation and cellular target identification” (Scientific Reports, 2016).

Test system: MCF-7 breast cancer cells
Experiment: MTT colorimetric cell viability assay, MCF-7
Assay type: cell-based
Conditions: for CTRL-TST/CTRL*100 (inhibition) MCF-7: EC50 plate
Method: MCF-7 cells were maintained as monolayer in 25 cm^2 culture flasks (T-25) at 37 °C in DMEM medium (GIBCO, St. Louis, USA) supplemented with high glucose, L-glutamine, pyridoxine hydrochloride, 110 mg/L sodium pyruvate, 3.7 g/L NaHCO3 and antibiotics (Penicillin-10,000 units/mL, Streptomycin −10,000 μg/mL, GIBCO, USA). Growth medium (pH 7.4) was prepared by adding 5% heat inactivated FBS (Fetal Bovine Serum, GIBCO, USA) and stored at 4 °C. The medium was changed 10–18 hrs prior to experiment, and cells were confluent at the time of experimentation. Cells were dislodged from flasks by gentle trypsinization containing 0.25% Trypsin. MCF-7 cells were regularly sub-cultured thrice a week in a seeding density of 40,000–50,000 cells/cm^2area. Cell confluency = 70%
The MTT colorimetric viability assay was performed to evaluate the anticancer effect of compounds. 30,000 cells/100 μl of media were seeded per well and allowed to stretch and adhere overnight at 37 °C. Following day media was removed and 100 μl fresh media was added to the grown cells. […] There was one positive and one negative control along with 13 compounds. The results were measured all in triplicate in 45 wells of 96 well plate at each time point. Cytotoxic effect was evaluated using ability of live cells to cleave MTT ((3-[4, 5- dimethylthiazol-2-yl]-2, 5-diphenyl tetrazolium bromide)) (Sigma-Aldrich, St Louis, MO, USA), into formazan crystals. Post 48 hours of treatment, 10 μl of MTT (5 mg/ml in PBS) was added to the cells and incubated for 4 hours in dark at 37 °C. The violet colored crystals formed were then dissolved in 100 μl DMSO solvent (Dimethyl Sulfoxide, Sigma-Aldrich, St. Louis, MO, USA). The colorimetric assay was read by a MultiMode Plate Reader (Bio-Rad) at 595 nm. Percentage of Inhibition of drug was calculated by following formula:
O.D1 O.D2 O.D3 AVG CTRL-TST CTRL-TST/CTRL*100 stdev

In the case of `O=C1Nc2ccccc2C12CCNC2c1ccccc1` (stereo not shown) [Compound 5l], the “CTRL-TST/CTRL*100 (inhibition) MCF-7” value (concentration row 10) is reported as 24.36, the “CTRL-TST/CTRL*100 (inhibition) MCF-7” value (concentration row 20) is reported as 33.4492 and the “CTRL-TST/CTRL*100 (inhibition) MCF-7” value (concentration row 30) is reported as 48.26. The “CTRL-TST/CTRL*100 (inhibition) MCF-7” value (concentration row 40) was 62.51, the “CTRL-TST/CTRL*100 (inhibition) MCF-7” value (concentration row 50) was 66.98 and the EC50 (Homo sapiens, MCF7, MTT, mean of three experiments) was 3.5 µM. The inhibition at 50 µM (Homo sapiens, MCF7, 50 μM, 48 hours, MTT, triplicates, read-out: Percentage inhibition MCF-7) was 60.96 ± 0.09%.
